# In patent US6355799B1, “Substituted benzene compounds, process for their preparation, and herbicidal and defoliant compositions containing them” (ISK Americas Incorporated, priority 1997, dated 2002):
# Columns and labels:
# Assay type in all cases: in vivo
# [1] = test system: field corn (Zea mays L., var. Dekalb 535, CORN); assay: Pre-emerge test, crop safety; conditions: rating scale 0-100, 14 days after application
# Outline: (§1)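 Compounds in acetone were track-sprayed at 187 l/ha, 15–1000 g ai/ha, onto sandy loam pots. Pre-emerge seeds were sown one day before spraying, with surface watering afterwards. Post-emerge plants were at the 2–3 leaf stage and sprayed with 0.25% v/v non-ionic surfactant. Injury was rated 0–100 at 14 days.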
# [2] = test system: upland rice (Oryza sp., var. Tebonnet, RICE); assay: Pre-emerge test, crop safety; conditions: rating scale 0-100, 14 days after application
# Outline: as §1
# [3] = test system: redroot pigweed (Amaranthus retroflexus, AMARE); assay: Pre-emerge test, greenhouse herbicide activity screening; conditions: rating scale 0-100, 14 days after application
# Outline: as §1
# [4] = test system: field corn (Zea mays L., var. Dekalb 535, CORN); assay: Post-emerge test, crop safety; conditions: rating scale 0-100 (0 no damage, 100 complete death), 14 days after application
# Outline: as §1
# [5] = test system: upland rice (Oryza sp., var. Tebonnet, RICE); assay: Post-emerge test, crop safety; conditions: rating scale 0-100 (0 no damage, 100 complete death), 14 days after application
# Outline: as §1
# [6] = test system: velvetleaf (Abutilon theophrasti, ABUTH); assay: Post-emerge test, greenhouse herbicide activity screening; conditions: rating scale 0-100 (0 no damage, 100 complete death), 14 days after application
# Outline: (§2)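 Rating: 0–100 visual injury, 14 DAA. Application: acetone, 187 l/ha, 15–1000 g ai/ha, flat-fan track sprayer with nozzle 40–45 cm above soil or canopy. Post-emerge runs used 0.25% v/v surfactant on 2–3 leaf plants.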
# [7] = test system: barnyardgrass (Echinochloa crus-galli, ECHCG); assay: as above; conditions: rating scale 0-100 (0 no damage, 100 complete death), 14 days after application
# Outline: as §2
# [8] = test system: johnsongrass (Sorghum halepense, SORHA); assay: as above; conditions: rating scale 0-100 (0 no damage, 100 complete death), 14 days after application
# Outline: as §2
# [9] = test system: sicklepod (Cassia obtusifolia, CASOB); assay: as above; conditions: rating scale 0-100 (0 no damage, 100 complete death), 14 days after application
# Outline: as §2
# [10] = test system: green foxtail (Setaria viridis, SETVI); assay: as above; conditions: rating scale 0-100 (0 no damage, 100 complete death), 14 days after application
# Outline: as §2
# [11] = test system: large crabgrass (Digitaria sanguinalis, DIGSA); assay: as above; conditions: rating scale 0-100 (0 no damage, 100 complete death), 14 days after application
# Outline: as §2
# [12] = test system: lambsquarters (Chenopodium album, CHEAL); assay: as above; conditions: rating scale 0-100 (0 no damage, 100 complete death), 14 days after application
# Outline: as §2
# [13] = test system: ivyleaf morningglory (Ipomoea hederacea, IPOHE); assay: as above; conditions: rating scale 0-100 (0 no damage, 100 complete death), 14 days after application
# Outline: as §2
# [14] = test system: redroot pigweed (Amaranthus retroflexus, AMARE); assay: as above; conditions: rating scale 0-100 (0 no damage, 100 complete death), 14 days after application
# Outline: as §2
# [15] = test system: velvetleaf (Abutilon theophrasti, ABUTH); assay: Pre-emerge test, greenhouse herbicide activity screening; conditions: rating scale 0-100, 14 days after application
# Outline: as §1
# [16] = test system: barnyardgrass (Echinochloa crus-galli, ECHCG); assay: as above; conditions: rating scale 0-100, 14 days after application
# Outline: as §1
# [17] = test system: johnsongrass (Sorghum halepense, SORHA); assay: as above; conditions: rating scale 0-100, 14 days after application
# Outline: as §1
# [18] = test system: sicklepod (Cassia obtusifolia, CASOB); assay: as above; conditions: rating scale 0-100, 14 days after application
# Outline: as §1
# [19] = test system: green foxtail (Setaria viridis, SETVI); assay: as above; conditions: rating scale 0-100, 14 days after application
# Outline: as §1
# [20] = test system: large crabgrass (Digitaria sanguinalis, DIGSA); assay: as above; conditions: rating scale 0-100, 14 days after application
# Outline: as §1
# [21] = test system: lambsquarters (Chenopodium album, CHEAL); assay: as above; conditions: rating scale 0-100, 14 days after application
# Outline: as §1
# [22] = test system: ivyleaf morningglory (Ipomoea hederacea, IPOHE); assay: as above; conditions: rating scale 0-100, 14 days after application
# Outline: as §1
# [23] = test system: common ragweed (Ambrosia artemisizfolia L., AMBEL); assay: as above; conditions: rating scale 0-100, 14 days after application
# Outline: as §1
structure (smiles),measurement,setting,value
"CCCCCOC(=O)C(Cl)Cc1c(OC)c(Cl)cc(F)c1-n1c(=O)cc(C(F)(F)F)n(C)c1=O (single isomer, unassigned) [14-10]","Pre-emerge phytotoxicity rating, crop damage CORN",[1]; 63 g ai/ha,0
same,"Pre-emerge phytotoxicity rating, crop damage CORN",[1]; 250 g ai/ha,40
same,"Pre-emerge phytotoxicity rating, crop damage RICE",[2]; 63 g ai/ha,20
same,"Pre-emerge phytotoxicity rating, crop damage RICE",[2]; 250 g ai/ha,30
same,"Pre-emerge herbicidal activity, phytotoxicity rating AMARE",[3]; 63 g ai/ha,100
same,"Pre-emerge herbicidal activity, phytotoxicity rating AMARE",[3]; 250 g ai/ha,100
same,Post-emerge phytotoxicity rating CORN (crop damage),[4]; Rate 63 g ai/ha,20
same,Post-emerge phytotoxicity rating CORN (crop damage),[4]; Rate 250 g ai/ha,60
same,Post-emerge phytotoxicity rating RICE (crop damage),[5]; Rate 63 g ai/ha,0
same,Post-emerge phytotoxicity rating RICE (crop damage),[5]; Rate 250 g ai/ha,20
same,"Post-emerge Herbicidal Activity, phytotoxicity rating ABUTH",[6]; Rate 63 g ai/ha,80
same,"Post-emerge Herbicidal Activity, phytotoxicity rating ABUTH",[6]; Rate 250 g ai/ha,100
same,"Post-emerge Herbicidal Activity, phytotoxicity rating ECHCG",[7]; Rate 63 g ai/ha,95
same,"Post-emerge Herbicidal Activity, phytotoxicity rating ECHCG",[7]; Rate 250 g ai/ha,100
same,"Post-emerge Herbicidal Activity, phytotoxicity rating SORHA",[8]; Rate 63 g ai/ha,20
same,"Post-emerge Herbicidal Activity, phytotoxicity rating SORHA",[8]; Rate 250 g ai/ha,50
same,"Post-emerge Herbicidal Activity, phytotoxicity rating CASOB",[9]; Rate 63 g ai/ha,80
same,"Post-emerge Herbicidal Activity, phytotoxicity rating CASOB",[9]; Rate 250 g ai/ha,90
same,"Post-emerge Herbicidal Activity, phytotoxicity rating SETVI",[10]; Rate 63 g ai/ha,50
same,"Post-emerge Herbicidal Activity, phytotoxicity rating SETVI",[10]; Rate 250 g ai/ha,90
same,"Post-emerge Herbicidal Activity, phytotoxicity rating DIGSA",[11]; Rate 63 g ai/ha,10
same,"Post-emerge Herbicidal Activity, phytotoxicity rating DIGSA",[11]; Rate 250 g ai/ha,100
same,"Post-emerge Herbicidal Activity, phytotoxicity rating CHEAL",[12]; Rate 63 g ai/ha,90
same,"Post-emerge Herbicidal Activity, phytotoxicity rating CHEAL",[12]; Rate 250 g ai/ha,100
same,"Post-emerge Herbicidal Activity, phytotoxicity rating IPOHE",[13]; Rate 63 g ai/ha,70
same,"Post-emerge Herbicidal Activity, phytotoxicity rating IPOHE",[13]; Rate 250 g ai/ha,80
same,"Post-emerge Herbicidal Activity, phytotoxicity rating AMARE",[14]; Rate 63 g ai/ha,90
same,"Post-emerge Herbicidal Activity, phytotoxicity rating AMARE",[14]; Rate 250 g ai/ha,100
same,"Pre-emerge herbicidal activity, phytotoxicity rating ABUTH",[15]; 63 g ai/ha,0
same,"Pre-emerge herbicidal activity, phytotoxicity rating ABUTH",[15]; 250 g ai/ha,90
same,"Pre-emerge herbicidal activity, phytotoxicity rating ECHCG",[16]; 63 g ai/ha,0
same,"Pre-emerge herbicidal activity, phytotoxicity rating ECHCG",[16]; 250 g ai/ha,0
same,"Pre-emerge herbicidal activity, phytotoxicity rating SORHA",[17]; 63 g ai/ha,0
same,"Pre-emerge herbicidal activity, phytotoxicity rating SORHA",[17]; 250 g ai/ha,30
same,"Pre-emerge herbicidal activity, phytotoxicity rating CASOB",[18]; 63 g ai/ha,0
same,"Pre-emerge herbicidal activity, phytotoxicity rating CASOB",[18]; 250 g ai/ha,0
same,"Pre-emerge herbicidal activity, phytotoxicity rating SETVI",[19]; 63 g ai/ha,0
same,"Pre-emerge herbicidal activity, phytotoxicity rating SETVI",[19]; 250 g ai/ha,0
same,"Pre-emerge herbicidal activity, phytotoxicity rating DIGSA",[20]; 63 g ai/ha,0
same,"Pre-emerge herbicidal activity, phytotoxicity rating DIGSA",[20]; 250 g ai/ha,90
same,"Pre-emerge herbicidal activity, phytotoxicity rating CHEAL",[21]; 63 g ai/ha,0
same,"Pre-emerge herbicidal activity, phytotoxicity rating CHEAL",[21]; 250 g ai/ha,100
same,"Pre-emerge herbicidal activity, phytotoxicity rating IPOHE",[22]; 63 g ai/ha,0
same,"Pre-emerge herbicidal activity, phytotoxicity rating IPOHE",[22]; 250 g ai/ha,70
same,"Pre-emerge herbicidal activity, phytotoxicity rating AMBEL",[23]; 63 g ai/ha,50
same,"Pre-emerge herbicidal activity, phytotoxicity rating AMBEL",[23]; 250 g ai/ha,100
"CCCCCOC(=O)C(Cl)Cc1c(OC)c(Cl)cc(F)c1-n1c(=O)cc(C(F)(F)F)n(C)c1=O (single isomer, unassigned) [14-11]","Pre-emerge phytotoxicity rating, crop damage CORN",[1]; 63 g ai/ha,0
same,"Pre-emerge phytotoxicity rating, crop damage CORN",[1]; 250 g ai/ha,0
same,"Pre-emerge phytotoxicity rating, crop damage RICE",[2]; 63 g ai/ha,0
same,"Pre-emerge phytotoxicity rating, crop damage RICE",[2]; 250 g ai/ha,0
same,"Pre-emerge herbicidal activity, phytotoxicity rating AMARE",[3]; 63 g ai/ha,100
same,"Pre-emerge herbicidal activity, phytotoxicity rating AMARE",[3]; 250 g ai/ha,100
same,Post-emerge phytotoxicity rating CORN (crop damage),[4]; Rate 63 g ai/ha,100
same,Post-emerge phytotoxicity rating CORN (crop damage),[4]; Rate 250 g ai/ha,100
same,Post-emerge phytotoxicity rating RICE (crop damage),[5]; Rate 63 g ai/ha,10
same,Post-emerge phytotoxicity rating RICE (crop damage),[5]; Rate 250 g ai/ha,20
same,"Post-emerge Herbicidal Activity, phytotoxicity rating ABUTH",[6]; Rate 63 g ai/ha,80
same,"Post-emerge Herbicidal Activity, phytotoxicity rating ABUTH",[6]; Rate 250 g ai/ha,100
same,"Post-emerge Herbicidal Activity, phytotoxicity rating ECHCG",[7]; Rate 63 g ai/ha,100
same,"Post-emerge Herbicidal Activity, phytotoxicity rating ECHCG",[7]; Rate 250 g ai/ha,100
same,"Post-emerge Herbicidal Activity, phytotoxicity rating SORHA",[8]; Rate 63 g ai/ha,50
same,"Post-emerge Herbicidal Activity, phytotoxicity rating SORHA",[8]; Rate 250 g ai/ha,99
same,"Post-emerge Herbicidal Activity, phytotoxicity rating CASOB",[9]; Rate 63 g ai/ha,50
same,"Post-emerge Herbicidal Activity, phytotoxicity rating CASOB",[9]; Rate 250 g ai/ha,70
same,"Post-emerge Herbicidal Activity, phytotoxicity rating SETVI",[10]; Rate 63 g ai/ha,80
same,"Post-emerge Herbicidal Activity, phytotoxicity rating SETVI",[10]; Rate 250 g ai/ha,100
same,"Post-emerge Herbicidal Activity, phytotoxicity rating DIGSA",[11]; Rate 63 g ai/ha,99
same,"Post-emerge Herbicidal Activity, phytotoxicity rating DIGSA",[11]; Rate 250 g ai/ha,100
same,"Post-emerge Herbicidal Activity, phytotoxicity rating CHEAL",[12]; Rate 63 g ai/ha,50
same,"Post-emerge Herbicidal Activity, phytotoxicity rating CHEAL",[12]; Rate 250 g ai/ha,100
same,"Post-emerge Herbicidal Activity, phytotoxicity rating IPOHE",[13]; Rate 63 g ai/ha,90
same,"Post-emerge Herbicidal Activity, phytotoxicity rating IPOHE",[13]; Rate 250 g ai/ha,100
same,"Post-emerge Herbicidal Activity, phytotoxicity rating AMARE",[14]; Rate 63 g ai/ha,95
same,"Post-emerge Herbicidal Activity, phytotoxicity rating AMARE",[14]; Rate 250 g ai/ha,100
same,"Pre-emerge herbicidal activity, phytotoxicity rating ABUTH",[15]; 63 g ai/ha,50
same,"Pre-emerge herbicidal activity, phytotoxicity rating ABUTH",[15]; 250 g ai/ha,100
same,"Pre-emerge herbicidal activity, phytotoxicity rating ECHCG",[16]; 63 g ai/ha,0
same,"Pre-emerge herbicidal activity, phytotoxicity rating ECHCG",[16]; 250 g ai/ha,0
same,"Pre-emerge herbicidal activity, phytotoxicity rating SORHA",[17]; 63 g ai/ha,0
same,"Pre-emerge herbicidal activity, phytotoxicity rating SORHA",[17]; 250 g ai/ha,0
same,"Pre-emerge herbicidal activity, phytotoxicity rating CASOB",[18]; 63 g ai/ha,0
same,"Pre-emerge herbicidal activity, phytotoxicity rating CASOB",[18]; 250 g ai/ha,0
same,"Pre-emerge herbicidal activity, phytotoxicity rating SETVI",[19]; 63 g ai/ha,0
same,"Pre-emerge herbicidal activity, phytotoxicity rating SETVI",[19]; 250 g ai/ha,50
same,"Pre-emerge herbicidal activity, phytotoxicity rating DIGSA",[20]; 63 g ai/ha,50
same,"Pre-emerge herbicidal activity, phytotoxicity rating DIGSA",[20]; 250 g ai/ha,100
same,"Pre-emerge herbicidal activity, phytotoxicity rating CHEAL",[21]; 63 g ai/ha,70
same,"Pre-emerge herbicidal activity, phytotoxicity rating CHEAL",[21]; 250 g ai/ha,100
same,"Pre-emerge herbicidal activity, phytotoxicity rating IPOHE",[22]; 63 g ai/ha,30
same,"Pre-emerge herbicidal activity, phytotoxicity rating IPOHE",[22]; 250 g ai/ha,50
same,"Pre-emerge herbicidal activity, phytotoxicity rating AMBEL",[23]; 63 g ai/ha,0
same,"Pre-emerge herbicidal activity, phytotoxicity rating AMBEL",[23]; 250 g ai/ha,100
